Data published in US12600732B2, “Bifunctional compounds for degrading BTK via ubiquitin proteosome pathway” (NURIX THERAPEUTICS, INC., priority 2019, dated 2026).
Several values for one entry are separate records, joined by “and”; a condition that tells them apart may be missing. Equal entries are not always repeated.

Experiments:
primary human T cells [1] = assay: T cell activation assay, IL-2 secretion (ELISA); assay type: cell-based; settings: for IL-2 secretion compared to baseline (anti-CD3/anti-CD28 stimulation alone): primary human T cells
Protocol: (§1) This example evaluates whether CTMs with IMiD activity affect T cell activation. […] These assays were performed to assess whether BTK CTMs with and without IMiD activity affected activation of primary human T cells after stimulation of the T cell receptor with anti-CD3/ati-CD28 stimulation. T cell activation was measured by IL-2 secretion (ELISA assay) and upregulation of activation markers CD25 and CD69 on the surface of T cells (flow cytometry). Data are presented as the fold-change of response relative to baseline (stimulation with anti-CD3/anti-CD28 stimulation in the absence of compound).

primary human T cells [2] = assay: T cell activation assay, CD25 and CD69 staining (flow cytometry); assay type: cell-based; settings: for CD25 Staining Anti-CD3/Anti-CD28 Stimulation / CD69 Staining Anti-CD3/Anti-CD28 Stimulation: fold-change of response relative to baseline; for expression of CD25 and CD69 compared to baseline (anti-CD3/anti-CD28 stimulation alone): primary human T cells
Protocol: as §1

BTK = biological target: T1, BTK (Mus musculus, UniProt P35991); assay: In vivo degradation of BTK in mouse PD experiments with oral dosing
T1 construct: from tissue; host or cells: mouse blood B cells / splenocytes (CD-1 or BALB/c)
Protocol: A method of determining the pharmacodynamic profile of BTK degraders was performed by dosing either CD-1 or BALB/c mice with CTM. The CTM was prepared in a suitable formulation and was administered via oral gavage (PO) at a suitable dose level and frequency as informed by prior pharmacokinetic and tolerability studies. Following administration of CTM, BTK levels in blood or splenocytes are measured using flow cytometry or HTRF. For assessment of BTK levels via flow cytometry, either whole blood or splenocytes were first treated with ACK RBC lysis buffer to facilitate lysing of red blood cells. Remaining cells were then stained with fluorophore-conjugated antibodies against CD45, TCR beta and CD45R (B220). Cell pellets were washed with 1×PBS, fixed, and permeabilized for twenty-four hours with Foxp3/Transcription Factor Fixation/Permeabilization Kit. Cells were then stained intracellularly with unconjugated BTK antibody and detected with a fluorophore-conjugated secondary antibody. Stained cells were run on an Attune N×T Acoustic Focusing Flow Cytometer (Thermo-Fisher A29004), and data was analyzed using FlowJo (v10.5.3) and GraphPad Prism (v7.00) software. Lymphocytes were gated for B cells defined as CD45+ TCR beta−B220+ and T cells as CD45+ TCR beta+B220−. The BTK geometric mean fluorescence intensity (MFI) was calculated for B and T cells. Percent BTK degradation for each compound-treated sample was calculated using the equation described below: % Degradation=100*(Treated sample B cell BTK MFI-treated sample T cell BTK MFI)/Vehicle B cell BTK MFI-Vehicle T cell BTK MFI)
This example evaluates in vivo activity of BTK CTMs via a direct mouse PD measurement following oral dosing
Screens were completed at 90 mg/kg for six hours, and then changed to lower doses/longer time points after seeing strong BTK degradation activity with an initial set of compounds. This assay was useful in selecting compounds for in vivo efficacy experiments.

[3] = PK data for BTK CTMs (in vivo plasma concentrations); settings: Mouse Balb/c
Text: The present example evaluates in vivo plasma concentrations of BTK CTMs to develop PK-PD-efficacy relationship and predict human exposure.

TMD8 C481S cells = assay: Cell viability assay (CellTiter-Glo), TMD8 C481S cells; settings: for EC50: Homo sapiens, TMD8, 72 h; for EMAX (% viable cells): TMD8 C481S cells, treatment time 72 h
TMD8 cells = assay: Cell viability assay (CellTiter-Glo), TMD8 cells; settings: for EC50: Homo sapiens, TMD8, 72 h; for EMAX (% viable cells): TMD8 cells, treatment time 72 h
Protocol: Cell viability was determined using CellTiter-Glo 2.0 Luminescent Cell Viability Assay (Promega, G9242), which quantitates the amount of ATP present as a proxy for the number of viable cells in culture. Cells were plated with densities between 2000-4000 cells per well in 96-well plates. […] CellTiter-Glo reagent was added to cells at a dilution of 1:20, and the plate was incubated ten minutes at room temperature prior to reading the luminescence signal using an EnVision plate reader. Controls included cells treated with DMSO and wells that contained no cells, only media. Background luminescence signal was determined by control wells containing no cells, only media, and was then subtracted from all sample wells. Luminescence values were then normalized to DMSO-treated wells and reported at proportion viable cells.
Here, the ability of CTMs to affect viability in BTK-dependent cell lines was assessed.

[4] = 1.4 nM, fold-change of response relative to baseline
[5] = 37 nM, fold-change of response relative to baseline
[6] = 333 nM, fold-change of response relative to baseline (stimulation without compound)

T1 sequence (P35991 whole entry): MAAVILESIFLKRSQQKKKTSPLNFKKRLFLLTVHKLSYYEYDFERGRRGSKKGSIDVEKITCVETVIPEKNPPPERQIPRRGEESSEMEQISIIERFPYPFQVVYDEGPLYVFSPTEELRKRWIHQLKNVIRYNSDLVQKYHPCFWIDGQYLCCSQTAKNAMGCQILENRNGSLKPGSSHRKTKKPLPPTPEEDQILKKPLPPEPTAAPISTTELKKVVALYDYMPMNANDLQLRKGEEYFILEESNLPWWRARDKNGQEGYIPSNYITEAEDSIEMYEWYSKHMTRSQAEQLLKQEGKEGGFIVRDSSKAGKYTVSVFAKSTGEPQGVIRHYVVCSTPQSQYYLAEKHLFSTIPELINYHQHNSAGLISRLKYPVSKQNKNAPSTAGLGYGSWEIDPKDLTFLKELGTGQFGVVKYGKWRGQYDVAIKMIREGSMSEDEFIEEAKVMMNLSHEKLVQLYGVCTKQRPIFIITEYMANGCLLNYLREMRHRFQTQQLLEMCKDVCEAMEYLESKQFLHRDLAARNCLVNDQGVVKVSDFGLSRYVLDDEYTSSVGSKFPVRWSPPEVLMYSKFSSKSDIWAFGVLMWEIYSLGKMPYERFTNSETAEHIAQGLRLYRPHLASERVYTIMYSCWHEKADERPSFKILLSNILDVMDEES

| SMILES | IL-2 Secretion Anti-CD3/Anti-CD28 Stimulation (primary human T cells [1]; [4]) | IL-2 Secretion Anti-CD3/Anti-CD28 Stimulation (primary human T cells [1]; [5]) | IL-2 Secretion Anti-CD3/Anti-CD28 Stimulation (primary human T cells [1]; [6]) | CD25 Staining Anti-CD3/Anti-CD28 Stimulation (primary human T cells [2]; 1.4 nM) | CD69 Staining Anti-CD3/Anti-CD28 Stimulation (primary human T cells [2]; 1.4 nM) | CD25 Staining Anti-CD3/Anti-CD28 Stimulation (primary human T cells [2]; 37 nM) | CD69 Staining Anti-CD3/Anti-CD28 Stimulation (primary human T cells [2]; 37 nM) | CD25 Staining Anti-CD3/Anti-CD28 Stimulation (primary human T cells [2]; 333 nM) | CD69 Staining Anti-CD3/Anti-CD28 Stimulation (primary human T cells [2]; 333 nM) | other results |
| --- | --- | --- | --- | --- | --- | --- | --- | --- | --- | --- |
| Nc1cccc2c1CN(C1CCC(=O)NC1=O)C2=O (centres unmarked) [Lenalidomide, lenalidomide, reference compound] | 1.63 | 4.48 | 8.67 | 1.26 | 1.20 | 1.73 | 1.49 | 1.93 | 1.81 | IL-2 secretion compared to baseline (anti-CD3/anti-CD28 stimulation alone) (primary human T cells [1]): induce IL-2 secretion; expression of CD25 and CD69 compared to baseline (anti-CD3/anti-CD28 stimulation alone) (primary human T cells [2]): increase expression |
| CN1CCN([C@H]2CCCN(c3cnc(C(N)=O)c(Nc4ccc5c(c4)CCN(CC4CN(c6ccc7c(c6)C(=O)N(C6CCC(=O)NC6=O)C7=O)C4)C5)n3)C2)C1=O (some centres unmarked) [Compound 92] | 1.53 | 2.19 | 1.63 | 1.14 | 1.09 | 1.21 | 1.29 | 1.06 | 1.35 |  |
| CN1CCN([C@@H]2CCCN(c3cnc(C(N)=O)c(Nc4ccc(C5CCN(C6CN(Cc7ccc8c(c7)CN(C7CCC(=O)NC7=O)C8=O)C6)CC5)cc4)n3)C2)C1=O (some centres unmarked) [Compound 86] |  |  |  |  |  |  |  |  |  | % BTK Remaining (BTK; oral dose 3 mg/kg, 6 h, blood, flow cytometry): 56%; % BTK Remaining (BTK; oral dose 3 mg/kg, 24 h, blood, flow cytometry): 70%; AUC ([3]; 1 mg/kg IV): 0.5 µM·h; clearance ([3]; 1 mg/kg IV): 35 mL/min/kg; Vd ([3]; 1 mg/kg IV, read-out: Volume of Distribution): 7.7 L/kg; AUC ([3]; 30 mg/kg PO): 0.34 µM·h; bioavailability ([3]; 30 mg/kg PO): 2%; EC50 (TMD8 C481S cells): 4.78 nM; EMAX (% viable cells) (TMD8 C481S cells): 30%; EC50 (TMD8 cells): 0.67 nM; EMAX (% viable cells) (TMD8 cells): 27% |
| CN1CCN([C@@H]2CCCN(c3cnc(C(N)=O)c(Nc4ccc(N5CC6(C5)CN(c5ccc7c(c5)C(=O)N(C5CCC(=O)NC5=O)C7=O)C6)cc4)n3)C2)C1=O (stereo partly drawn) [Compound 34, 3-((4-(6-(2-(2,6-dioxopiperidin-3-yl)-1,3-dioxoisoindolin-5-yl)-2,6-diazaspiro[3.3]heptan-2-yl)phenyl)amino)-5-((R)-3-(3-methyl-2-oxoimidazolidin-1-yl)piperidin-1-yl)pyrazine-2-carboxamide] | 1.48 | 1.66 | 1.58 | 1.21 | 1.14 | 1.31 | 1.21 | 1.25 | 1.23 | % BTK Remaining (BTK; oral dose 1 mg/kg, 6 h, splenocytes, HTRF): 75% |
| CN1CCN([C@@H]2CCCN(c3cnc(C(N)=O)c(Nc4ccc(OCCCNc5ccc6c(c5)C(=O)N(C5CCC(=O)NC5=O)C6=O)cc4)n3)C2)C1=O (some centres unmarked) [Compound 64] | 1.28 | 1.80 | 1.48 | 1.17 | 1.14 | 1.04 | 1.14 | 0.34 | 0.64 |  |
| CN1CCN([C@@H]2CCCN(c3cnc(C(N)=O)c(Nc4ccc(C5CCN(C[C@H]6CC[C@H](Nc7cccc8c7C(=O)N(C7CCC(=O)NC7=O)C8=O)CC6)CC5)cc4)n3)C2)C1=O (some centres unmarked) [Compound 154] | 1.77 | 3.38 | 3.45 | 1.23 | 1.18 | 1.36 | 1.29 | 1.13 | 1.16 |  |
| Nc1cccc2c1C(=O)N(C1CCC(=O)NC1=O)C2=O (centres unmarked) [Pomalidomide, pomalidomide, reference compound] | 1.31 | 4.80 | 5.50 | 1.03 | 1.01 | 1.39 | 1.33 | 1.63 | 1.77 | IL-2 secretion compared to baseline (anti-CD3/anti-CD28 stimulation alone) (primary human T cells [1]): induce IL-2 secretion; expression of CD25 and CD69 compared to baseline (anti-CD3/anti-CD28 stimulation alone) (primary human T cells [2]): increase expression |
| CN1CCN([C@@H]2CCCN(c3cnc(C(N)=O)c(Nc4ccc(C5CCN(CCCNc6cccc7c6C(=O)N(C6CCC(=O)NC6=O)C7=O)CC5)cc4)n3)C2)C1=O (some centres unmarked) [Compound 155] | 1.62 | 3.13 | 3.11 | 1.31 | 1.25 | 1.46 | 1.34 | 1.21 | 1.20 |  |
| CN1CCN([C@@H]2CCCN(c3cnc(C(N)=O)c(Nc4ccc(N5CCN(C[C@@H]6[C@H]7CN(c8ccc9c(c8)C(=O)N(C8CCC(=O)NC8=O)C9=O)C[C@@H]67)CC5)cc4)n3)C2)C1=O (some centres unmarked) [Compound 38] | 1.21 | 1.58 | 1.81 | 1.05 | 1.02 | 1.02 | 0.99 | 0.86 | 0.90 | % BTK Remaining (BTK; oral dose 1 mg/kg, 6 h, splenocytes, HTRF, 1 mg/kg): 68% and 76%; % BTK Remaining (BTK; oral dose 3 mg/kg, 6 h, splenocytes, HTRF): 38% |
| CN1CCN([C@@H]2CCCN(c3cnc(C(N)=O)c(Nc4ccc(N5CCN(C[C@H]6CCN(c7ccc8c(c7)C(=O)N(C7CCC(=O)NC7=O)C8=O)C6)CC5)cc4)n3)C2)C1=O (some centres unmarked) [Compound 42] |  |  |  |  |  |  |  |  |  | % BTK Remaining (BTK; oral dose 90 mg/kg, 6 h, splenocytes, HTRF): 5%; EC50 (TMD8 C481S cells): 1.96 nM; EMAX (% viable cells) (TMD8 C481S cells): 57%; EC50 (TMD8 cells): 0.217 nM; EMAX (% viable cells) (TMD8 cells): 40% |
